Laboratory results: PubChem BioAssay AID493062 (The Scripps Research Institute Molecular Screening Center, 2011)

Assays:
[1] = system: 2B4/BCL-2; assay: caspase activation in 2B4/MCL-1 versus 2B4/BCL-2 cells, late-stage follow-up, selectivity assay for MCL1-BIM inhibitor project, cell-based, fluorescence, assay provider data (AID 493062); conditions: 2B4/MCL-1 caspase activation fluorescence
[2] = system: 2B4/MCL-1; assay: as above; conditions: 2B4/MCL-1 caspase activation fluorescence

| SMILES | EC50 [1] | EC50 [2] |
| --- | --- | --- |
| CCN1CCN(C(=O)c2cc(-c3ccco3)nc3ccccc23)CC1 | > 25 µM | > 25 µM |
| CCCN(C(=O)c1cc(-c2ccco2)nc2ccccc12)c1c(N)n(Cc2ccccc2)c(=O)[nH]c1=O | > 25 µM | > 25 µM |
| COC(=O)C1CCN(C(=O)c2cc(-c3ccco3)nc3ccccc23)CC1 | > 25 µM | > 25 µM |
| COc1ccc(NC(=O)c2cc(-c3ccc(C)o3)nc3ccccc23)cc1 | > 25 µM | > 25 µM |
| COc1ccc(Cc2nnc(CC(=O)Nc3cccs3)s2)cc1 | > 25 µM | > 25 µM |
| Cc1ccc(-c2cc(C(=O)Nc3cccnc3)c3ccccc3n2)o1 | > 25 µM | > 25 µM |
| O=C(c1cc(-c2ccco2)nc2ccccc12)N1CCN(c2ccc(F)cc2)CC1 | > 25 µM | > 25 µM |
| Cc1ccc(-c2cc(C(=O)N3CCN(c4ncccn4)CC3)c3cc(Br)ccc3n2)o1 | > 25 µM | > 25 µM |
| COc1ccc(Cc2nnc(NC(=O)c3cc(-c4ccco4)nc4ccccc34)s2)cc1OC | > 25 µM | > 25 µM |
| O=C(c1cc(-c2ccco2)nc2ccccc12)N(Cc1nnc(-c2ccc(Cl)cc2)o1)C1CC1 | > 25 µM | > 25 µM |
| COc1ccc(Cc2nnc(NC(=O)Cc3cccc(Br)c3)s2)cc1OC | > 25 µM | > 25 µM |
| Cc1ccc(-c2cc(C(=O)Nc3ccccc3C)c3ccccc3n2)o1 | > 25 µM | > 25 µM |
| CCCCN(C(=O)c1cc(-c2ccco2)nc2ccccc12)c1c(N)n(CCCC)c(=O)[nH]c1=O | > 25 µM | > 25 µM |
| O=C(Nc1ccccc1N1CCOCC1)c1cc(-c2ccco2)nc2ccccc12 | > 25 µM | > 25 µM |
| Cc1ccc(-c2cc(C(=O)N3CC(C)OC(C)C3)c3ccccc3n2)o1 (stereo not given) | > 25 µM | > 25 µM |
| Cc1ccnc(NC(=O)c2cc(-c3ccc(C)o3)nc3ccccc23)c1 | 40 µM | 40 µM |
| COc1cccc(NC(=O)CN(C)C(=O)c2cc(-c3ccco3)nc3ccccc23)c1 | > 25 µM | > 25 µM |
| COc1ccc(-c2cc(=O)oc3cc(OCC(=O)N4CC4)ccc23)cc1 | > 25 µM | > 25 µM |
| COCCCN(C(=O)c1cc(-c2ccco2)nc2ccccc12)c1c(N)n(Cc2ccccc2)c(=O)[nH]c1=O | > 25 µM | > 25 µM |
| Cc1ccc(-c2cc(C(=O)N3CCN(c4ccccc4O)CC3)c3ccccc3n2)o1 | > 25 µM | > 25 µM |
| CCOC(=O)C1CCCN(C(=O)c2cc(-c3ccco3)nc3ccccc23)C1 (stereo not given) | > 25 µM | > 25 µM |
| Cc1ccc(-c2cc(C(=O)N3CCCC(C(F)(F)F)C3)c3ccccc3n2)o1 (stereo not given) | > 25 µM | > 25 µM |
| O=C(NCC1CCCO1)c1cc(-c2ccco2)nc2ccccc12 (stereo not given) | > 25 µM | > 25 µM |

| SMILES | EC50 [1] | EC50 [2] |
| --- | --- | --- |
| Cc1ccc(-c2cc(C(=O)Nc3nccs3)c3ccccc3n2)o1 | > 25 µM | > 25 µM |
| COc1cccc(NC(=O)c2cc(-c3ccc(C)o3)nc3ccccc23)c1 | > 25 µM | > 25 µM |
| CCCCn1c(N)c(N(CCOC)C(=O)c2cc(-c3ccco3)nc3ccccc23)c(=O)[nH]c1=O | > 25 µM | > 25 µM |
| CC(=O)N1CCN(C(=O)c2cc(-c3ccc(C)o3)nc3ccccc23)CC1 | > 25 µM | > 25 µM |
| Cc1nnc(NC(=O)c2cc(-c3ccco3)nc3ccccc23)s1 | > 25 µM | > 25 µM |
| O=C(Nc1nncs1)c1cc(-c2ccco2)nc2ccccc12 | > 25 µM | > 25 µM |
| CCCCN(C(=O)c1cc(-c2ccco2)nc2ccccc12)c1c(N)n(CCC)c(=O)[nH]c1=O | > 25 µM | > 25 µM |
| CCc1nnc(NC(=O)c2cc(-c3ccco3)nc3ccccc23)s1 | > 25 µM | > 25 µM |
| CC(C)CCNC(=O)c1cc(-c2ccco2)nc2ccccc12 | > 25 µM | > 25 µM |
| CCc1nnc(NC(=O)c2cc(-c3ccc(C)o3)nc3ccccc23)s1 | > 25 µM | > 25 µM |
| Cc1cccc(NC(=O)c2cc(-c3ccco3)nc3ccc(Br)cc23)n1 | 0.6 µM | 25 µM |
| O=C(Nc1nccs1)c1cc(-c2ccco2)nc2ccccc12 | > 25 µM | > 25 µM |
| O=C(Nc1ccc(F)cc1F)c1cc(-c2ccco2)nc2ccccc12 | > 25 µM | > 25 µM |
| COc1ccc(Cc2nnc(NC(=O)C(F)c3ccccc3)s2)cc1OC (stereo not given) | > 25 µM | > 25 µM |
| COc1ccc(Cc2nnc(NC(=O)CCc3ccco3)s2)cc1OC | 1.5 µM | 0.8 µM |
| COc1ccccc1CC(=O)Nc1nnc(Cc2ccc(OC)c(OC)c2)s1 | > 25 µM | > 25 µM |
| O=C(NCCCN1CCOCC1)c1cc(-c2ccco2)nc2ccccc12 | > 25 µM | > 25 µM |
| COc1ccc(Cc2nnc(NC(=O)Cc3ccccn3)s2)cc1OC | > 25 µM | > 25 µM |
| COc1ccc(Cc2nnc(NC(=O)c3cc(-c4ccc(C)o4)nc4ccccc34)s2)cc1OC | 30 µM | 12 µM |
| COc1ccc(Cc2nnc(NC(=O)Cc3ccsc3)s2)cc1OC | > 25 µM | > 25 µM |
| COc1ccccc1NC(=O)c1cc(-c2ccc(C)o2)nc2ccccc12 | > 25 µM | > 25 µM |
| COc1ccc(Cc2nnc(NC(=O)Cc3ccc(Oc4ccccc4)cc3)s2)cc1OC | 3.6 µM | 4 µM |
